From patent US5424196A, “Enzymatic process for preparing 7-aminocephalosporanic acid and derivatives” (Antibioticos S.p.A., priority 1990, dated 1995)

Legend:
[1] = target: T1, D-amino acid oxidase (DAO; EC-1.4.3.3) from Rhodotorula gracilis ATCC 26217 (Rhodotorula toruloides, UniProt P80324); assay: Substrate specificity (Km) of D-amino acid oxidase; assay type: biochemical; settings: compared with D-alanine, the specific substrate for this enzyme
T1 construct: production of Rhodotorula gracilis cells of high DAO enzyme content; made in house; host or cells: Rhodotorula gracilis ATCC 26217 (natural producer, aerobic fermentation)
T1 sequence (P80324 25-368): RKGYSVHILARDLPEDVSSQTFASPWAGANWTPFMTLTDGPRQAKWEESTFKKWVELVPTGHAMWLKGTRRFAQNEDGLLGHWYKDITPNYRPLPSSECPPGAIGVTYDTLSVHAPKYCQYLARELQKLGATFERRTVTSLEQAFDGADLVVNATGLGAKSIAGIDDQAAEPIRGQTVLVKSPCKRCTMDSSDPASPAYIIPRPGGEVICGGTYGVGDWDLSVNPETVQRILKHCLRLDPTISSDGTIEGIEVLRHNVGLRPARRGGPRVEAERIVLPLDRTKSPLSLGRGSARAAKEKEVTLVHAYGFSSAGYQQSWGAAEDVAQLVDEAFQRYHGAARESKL
Experimental: The activity of the D-amino acid oxidase enzyme is evaluated by measuring the H2 O2 quantity evolved on reacting the enzyme on a substrate of D-alanine in 100 mM phosphate buffer at pH 7.5 saturated with oxygen at 37° C.
The H2 O2 is determined kinetically using a peroxidase-based reactant, 4-aminophenazone and 2,4-dichlorophenolsulphonate by the modified Trinder reaction (J. Clin. Path. 22, 246, 1969). The red colour which forms (quinonimine) is proportional to the hydrogen peroxide evolved in the test and is measured spectrophotometrically at 510 nm.
One unit of D-amino acid oxidase is that quantity of enzyme (free or immobilized) which under the conditions used in the method produces one μmole of H2 O2 per minute.

[2] = target: T1, D-amino acid oxidase (DAO; EC-1.4.3.3) from Rhodotorula gracilis ATCC 26217; assay: Dissociation constant of the FAD cofactor from D-amino acid oxidase; assay type: binding; settings: read-out: dissociation constant (bond with the FAD)

Compound	Km [1]	Kd [2] [nM]
CC(=O)OCC1=C(C(=O)O)N2C(=O)[C@@H](NC(=O)CCC[C@@H](N)C(=O)O)[C@H]2SC1 [Cephalosporin C]	very similar to those encountered for D-alanine	
Cc1cc2nc3c(=O)[nH]c(=O)nc-3n(C[C@H](O)[C@H](O)[C@H](O)COP(=O)(O)OP(=O)(O)OC[C@H]3O[C@@H](n4cnc5c(N)ncnc54)[C@H](O)[C@@H]3O)c2cc1C [FAD]		22
